Patent publication US4584312A, “Substituted 2,3,4,9-tetrahydro-1H-carbazole-1-acetic acid, compositions and use” (American Home Products Corporation, priority 1985, dated 1986)

Key:
[1] = system: Freund's complete adjuvant hind paw edema; experiment: Preventative Adjuvant Edema; type: in vivo, rat (Male Sprague Dawley); details: 25 mg/kg, p.o.; rats; hind paw edema volume day 0 to day 3; dosed day 0, 1 and 2
Method: This test is a primary screen for anti-inflammatory drugs.
Male Sprague Dawley rats (180-200 g) are used. The animals have free access water but food is withdrawn 18 hours before testing.
Freund's complete adjuvant is prepared by suspending 5 mg killed and dried Mycobacterium butyricum (Difco) in 1 ml liquid paraffin. The test compounds are dissolved in distilled water or suspended in distilled water with a few drops of Tween 80 according to their solubility. […]
The method is essentially that described by Wax et al., J. Pharmacol. Exp. Ther., 192, 166-171 (1975). Groups of rats are injected intradermally in the left hind paw with 0.1 ml of Freund's complete adjuvant. The test compound or vehicle is administered immediately before the adjuvant, 24 hours and 48 hours after the adjuvant (day 0, 1 and 2). The injected hind paw volume is measured before the injection of adjuvant and 24 hrs. after the last drug administration (day 3) by means of a plethysmometer (Buxco Electronics Inc.). The difference between the hind paw volume on day 0 and day 3 represents the edema volume. Phenylbutazone (50 mg/kg, p.o.) is included as a positive control.
The mean edema volume (expressed as ml±SEM) IS calculated for each group and the percentage protection conferred by the drug is calculated: [formula] where c is the mean edema volume for the untreated controls and t is the mean edema volume for the drug treated group.

[2] = system: phenylquinone-induced writhing; experiment: Phenylquinone Writhing in Mice; type: in vivo, mouse (Male Swiss albino); details: 25 mg/kg, p.o., phenylquinone i.p. 60 minutes after dosing, writhes counted over 15 min
Method: A further test used to determine the utility of the compounds of the present invention is designated: DRUG EFFECTS ON PHENYLQUINONEINDUCED WRITHING IN MICE
The objective of this test is to determine the ability of test drugs to inhibit the nociceptive (pain) response of mice injected with a chemical irritant. This test is a primary screen for both peripheral and centrally acting analgesic drugs.
Male Swiss albino mice (15-25 g). The animals are fasted for 18 hours prior to use but have free access to water.
Drugs are dissolved or suspended according to their solubility in 0.5% methyl cellulose or 0.5% Tween 80. They are administered by gastric lavage in a volume of 5 ml/kg. For primary screening all drugs are administered at the arbitary dosage of 200 mg/kg, p.o. to a group of 10 mice.
A modification of the method of Siegmund et al., Proc. Soc. Exp. Biol. Med., 95, 729-731 (1957) is used. Groups of 5 mice are dosed with the test compound or vehicle control. Sixty minutes later the animals are injected i.p. with 0.3 ml/20 g body weight of a 0.02% solution of phenylquinone (PBQ; 2-phenyl-1,4-benzoquinone) and placed in individual observation boxes. The number of writhing or abdominal squirming movements made by each mouse during the following 15 min. period is counted. The experiment is repeated with another group of 5 mice and the mean number of writhes per mouse for a group of 10 mice is calculated.
Drug treated and vehicle-treated control groups are compared and the percentage protection conferred by the drug is calculated: [formula] where c=mean number of writhes in the control group where t=mean number of writhes in the test drug group

| SMILES | % Inhibition (Preventative Adjuvant Edema) [1] [%] | % Inhibition (Phenylquinone Writhing in Mice) [2] [%] |
| --- | --- | --- |
| CCc1cccc2c3c([nH]c12)C(CC)(CC(=O)O)CCC3C1CC1 (single isomer, unassigned) [Example 1 f Isomer A, 4-Cyclopropyl-1,8-diethyl-2,3,4,9-tetrahydro-1H-carbazole-1-acetic Acid] | 0 | 31 |
| CCc1cccc2c3c([nH]c12)C(CC)(CC(=O)O)CCC3C1CC1 (single isomer, unassigned) [Example 1 f Isomer B, 4-Cyclopropyl-1,8-diethyl-2,3,4,9-tetrahydro-1H-carbazole-1-acetic Acid] | 12 | 49 |
| CCc1cccc2c3c([nH]c12)C(CC)(CC(=O)O)CCC3C1CCCC1 (single isomer, unassigned) [Example 2 c Isomer B, 4-Cyclopentyl-1,8-diethyl-2,3,4,9-tetrahydro-1H-carbazole-1-acetic acid] | 0 | 17 |
| CCc1cccc2c3c([nH]c12)C(CC)(CC(=O)O)CCC3C1CCCC1 (single isomer, unassigned) [Example 2 d Isomer A, 4-cyclopentyl-1,8-diethyl-2,3,4,9-tetrahydro-1H-carbazole-1-acetic acid] | 0 | 35 |
